Measured values published in patent publication US9474730B2, “Methods and compositions for use with K-ras mediated disorders” (Board of Regents of the University of Texas System, priority 2012, dated 2016).
Counter-ions that a name gives are not always drawn.

Columns and labels:
[1] = system: human oral cancer cells, PC3 prostate cancer cells and MDCK cells; conditions: cited from earlier work
[2] = target: T1, mGFP-tagged K-rasG12V in BHK cells (Homo sapiens, UniProt P01116, G12V); assay: Immuno-electron microscopy and spatial analysis of plasma membrane sheets, K-rasG12V; format: cell-based, hamster; conditions: 6 μg/mL, 48 h
T1 construct: BHK cells expressing GFP-tagged full length constitutively active Ras (G12V) proteins; expressed in transfected cells
Protocol: FIG. 4: Illustrates that fendiline HCl alters plasma membrane association and nanoclustering of K-ras: Plasma membrane sheets were generated from cells expressing GFP-K-rasG12V or GFP-H-rasG12V. Cells were treated with vehicle or fendiline HCl (6 μg/mL) for 48 h. Plasma membrane sheets were labeled with anti-GFP antibody conjugated to 4.5 nm gold. The plasma membrane sheets were imaged in an electron microscope and the spatial distribution of the gold labeling was analyzed using Ripley's K-function. Maximum L(r)-r values above the 99% confidence interval (C.I.) for complete spatial randomness (CSR) indicate clustering at that value of r. […] Significant differences from the control pattern for fendiline treated cells were assessed using bootstrap tests, wherein experimentation was performed in accordance with principles described herein;
Immuno-EM and spatial analysis were conducted exactly as described previously (Hancock, J. F., and Prior, I. A. (2005). Electron microscopic imaging of Ras signaling domains. Methods 37, 165-172; Prior, I. A., Muncke, C., Parton, R. G., and Hancock, J. F. (2003). Direct visualization of Ras proteins in spatially distinct cell surface microdomains. J Cell Biol 160, 165-170). […] Intact 1-μm^2 areas of the plasma membrane sheet were identified using ImageJ, and the x-y coordinates of the gold particles were determined. […]

## CC(NCCC(c1ccccc1)c1ccccc1)c1ccccc1 (stereo not drawn) [fendiline HCl]
[1]
  intracellular Ca2+: increase intracellular Ca^2+
[2]
  clustering of K-rasG12V on plasma membrane: reduced clustering of both K- and H-rasG12V proteins
  plasma membrane associated K-rasG12V (EM gold labeling): reduces the plasma membrane associated K-rasG12V
